The values below come from ChEMBL document CHEMBL1133817, “Discovery of novel, orally active dual NK1/NK2 antagonists” (Bioorg Med Chem Lett, 2001).

A word on the pKB: it is −log10 of the KB, conventionally taken in molar units.

Structures are written as SMILES.

Assay [1] concerns Substance-P receptor (Oryctolagus cuniculus). Nature of the assay: Binding constant towards tachykinin receptor 1 using ASMSP as agonist on rabbit pulmonary artery tissues.
For assay [2], the target named is T1, Substance-K receptor (Oryctolagus cuniculus) (UniProt P79218).
T1 sequence (whole entry): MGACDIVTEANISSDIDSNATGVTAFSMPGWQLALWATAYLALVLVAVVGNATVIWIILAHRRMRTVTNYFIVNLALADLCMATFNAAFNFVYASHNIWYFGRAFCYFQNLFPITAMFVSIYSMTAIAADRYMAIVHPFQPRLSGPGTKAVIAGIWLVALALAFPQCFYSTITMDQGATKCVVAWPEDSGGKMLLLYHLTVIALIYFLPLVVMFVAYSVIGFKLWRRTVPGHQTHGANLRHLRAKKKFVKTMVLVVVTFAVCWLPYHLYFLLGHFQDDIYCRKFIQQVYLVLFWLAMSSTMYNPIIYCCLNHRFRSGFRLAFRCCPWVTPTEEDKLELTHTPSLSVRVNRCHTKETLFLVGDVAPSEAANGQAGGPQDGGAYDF
Nature of the assay: Binding constant towards Tachykinin receptor 2 using BANK as agonist on rabbit pulmonary artery tissues.

Take `CN(C[C@@H](CCN1CCC(c2ccccc2[S+](C)[O-])CC1)c1ccc(Cl)c(Cl)c1)C(=O)c1cc(S(C)(=O)=O)cc2ccccc12` (some centres undefined): the pKB is 7.43 in assay [1] and 7.35 in assay [2].

In the case of `CN(C[C@@H](CCN1CCC(c2ccccc2[S+](C)[O-])CC1)c1ccc(Cl)c(Cl)c1)C(=O)c1cccc2ccccc12` (some centres undefined), the pKB was found to be 7.89 in assay [1] and 8.18 in assay [2]. Compound `CC(=O)NC1(c2ccccc2)CCN(CC[C@H](CN(C)C(=O)c2ccccc2)c2ccc(Cl)c(Cl)c2)CC1` gave a pKB in assay [2] of 9.3.

In the case of `CN(C[C@@H](CCN1CCC(O)(c2ccccc2[S+](C)[O-])CC1)c1ccc(Cl)c(Cl)c1)C(=O)c1cccc2ccccc12` (some centres undefined), the pKB came out at 7.3 in assay [1] and 7.32 in assay [2]. Regarding `CCN1C(=O)c2ccccc2[C@H]1[C@@H](CCN1CCC(c2ccccc2[S@+](C)[O-])CC1)c1ccc(Cl)c(Cl)c1`, the pKB in assay [2] is 8.8. As for `CNC(=O)c1ccccc1C1CCN(CC[C@H](CN(C)C(=O)c2cccc3ccccc23)c2ccc(Cl)c(Cl)c2)CC1`, the figures for the pKB in assay [1] and in assay [2] were 7.3 and 8.21, respectively. For `CN(C[C@@H](CCN1CCC(c2ccc([S+](C)[O-])cc2)CC1)c1ccc(Cl)c(Cl)c1)C(=O)c1cccc2ccccc12` (some centres undefined), the pKB in assay [1] was 7.4; in assay [2] it was 6.76. For `CN(C[C@@H](CCN1CCC(c2ccccc2[S+](C)[O-])CC1)c1ccc(Cl)c(Cl)c1)C(=O)c1cc(CC#N)cc2ccccc12` (some centres undefined), the negative-log KB (pKB) in assay [1] came out at 8.42; in assay [2] it was 6.99. With `C=C(C)c1cc(C(=O)N(C)C[C@@H](CCN2CCC(c3ccccc3[S+](C)[O-])CC2)c2ccc(Cl)c(Cl)c2)c2ccccc2c1` (some centres undefined), the pKB in assay [1] and in assay [2] was 7.24 in each case.

For `CN(C[C@@H](CCN1CCC(c2ccccc2[S+](C)[O-])CC1)c1ccc(Cl)c(Cl)c1)C(=O)c1cc(Br)cc2ccccc12` (some centres undefined), the pKB in assay [1] came to 8.15; in assay [2], 7.67.

On to `CN(C[C@@H](CCN1CCC(c2ccccc2[S+](C)[O-])CC1)c1ccc(Cl)c(Cl)c1)C(=O)c1cccc2ccc(C#N)cc12` (some centres undefined), for which the pKB in assay [1] amounted to 8.13; in assay [2], 8.51. In the case of `CN(C[C@@H](CCN1CCC(N2CCCNC2=O)CC1)c1ccc(Cl)c(Cl)c1)C(=O)c1cccc2ccccc12`, the pKB in assay [1] was 7.34; in assay [2], 7.92. Turning to `C#Cc1cc(C(=O)N(C)C[C@@H](CCN2CCC(c3ccccc3[S+](C)[O-])CC2)c2ccc(Cl)c(Cl)c2)c2ccccc2c1` (some centres undefined), the pKB amounted to 7.71 in assay [1] and 7.44 in assay [2]. For `CN(C[C@@H](CCN1CCC(c2ccccc2[S+](C)[O-])CC1)c1ccc(Cl)c(Cl)c1)C(=O)c1cc(C(=O)O)cc2ccccc12` (some centres undefined) the same measures were 5.68 and 6.86.

As for `Cc1cc(C(=O)N(C)C[C@@H](CCN2CCC(c3ccccc3[S+](C)[O-])CC2)c2ccc(Cl)c(Cl)c2)c2ccccc2c1` (some centres undefined), the pKB in assay [1] amounted to 8.03; in assay [2], 7.29. For `CN(C[C@@H](CCN1CCC(c2ccccc2[S+](C)[O-])CC1)c1ccc(Cl)c(Cl)c1)C(=O)c1cccc2cc(C#N)ccc12` (some centres undefined) the same measures were 8.55 and 7.62.

On to `CN(C[C@@H](CCN1CCC2(CC1)C[S+]([O-])c1ccccc12)c1ccc(Cl)c(Cl)c1)C(=O)c1cccc2ccccc12` (some centres undefined), for which the pKB in assay [1] was found to be 6.98; in assay [2], 8.1. For `CN(C[C@@H](CCN1CCC(O)(c2ccc([S+](C)[O-])cc2)CC1)c1ccc(Cl)c(Cl)c1)C(=O)c1cccc2ccccc12` (some centres undefined) the same measures were 6.92 and 7.54. On to `CN(C[C@@H](CCN1CCC(c2ccccc2[S+](C)[O-])CC1)c1ccc(Cl)c(Cl)c1)C(=O)c1cc([N+](=O)[O-])cc2ccccc12` (some centres undefined), for which the pKB in assay [1] amounted to 8.16; in assay [2], 9.03. On the same counts, the results for `CN(C[C@@H](CCN1CCC(c2ccccc2[S+](C)[O-])CC1)c1ccc(Cl)c(Cl)c1)C(=O)c1ccc(C#N)c2ccccc12` (some centres undefined) are 6.31 and 7.34. `CN(C[C@@H](CCN1CCC(c2ccccc2[S@+](C)[O-])CC1)c1ccc(Cl)c(Cl)c1)C(=O)c1cc(C#N)cc2ccccc12` (stereo in doubt; 4b) yielded a pKB in assay [2] of 8.39.
